Measurements published in paper PMC6858373 (Scientific Reports, 2019).
Counter-ions that a name gives are not always drawn. Like-named read-outs stand apart in the source and are kept apart here.

What was measured:
[1] = target: full-length P. pyralis luciferase (Photinus pyralis, UniProt P08659, K549A/L550V/N119G/N50D/S548I); format: cell-based
Clone V cells [2] = assay: CellTiter Blue (CTB) cell viability counter-screen; conditions: CC_NCI screening; normalized to on-plate 0.3% DMSO controls
[3] = target: T1, FGF14:Nav1.6 C-tail complex (Homo sapiens, UniProt Q92915+Q9UQD0); assay: Split-luciferase complementation assay (LCA) in Clone V double stable HEK293 cells; format: cell-based; conditions: for Split Luciferase Assay Z-score Set 1 / Split Luciferase Assay % Lum Set 1 / Split Luciferase Assay Z-score Set 2 / Split Luciferase Assay %Lum Set 2: CC_NCI screening; for Split Luciferase Assay Z-score Set 1 / Split Luciferase Assay % Lum Set 1: biological replicate Set 1; for Split Luciferase Assay Z-score Set 1 / Split Luciferase Assay Z-score Set 2: normalized to on-plate 0.3% DMSO controls; for Split Luciferase Assay % Lum Set 1 / Split Luciferase Assay %Lum Set 2: normalized to on-plate 0.3% DMSO controls (n=16 per plate); for Split Luciferase Assay Z-score Set 2 / Split Luciferase Assay %Lum Set 2: biological replicate Set 2; for Split Luciferase Assay %Lum Avg: average of Set 1 and Set 2, normalized to 0.3% DMSO controls
T1 construct: polymerase chain reaction (PCR) amplification of the FGF14 open reading frame (nt 1–855); C-terminal fragment of Nav1.6 (amino acids 1763–1976) fused with CD4ΔC-tail (amino acids 1–395); expressed in transfected cells

in vitro = conditions: human
Clone V cells [4] = conditions: human, 16 h, 30 µM
[5] = CC_NCI screening, normalized to on-plate 0.3% DMSO controls

T1 sequence (Q92915 1-252 isoform Q92915-2): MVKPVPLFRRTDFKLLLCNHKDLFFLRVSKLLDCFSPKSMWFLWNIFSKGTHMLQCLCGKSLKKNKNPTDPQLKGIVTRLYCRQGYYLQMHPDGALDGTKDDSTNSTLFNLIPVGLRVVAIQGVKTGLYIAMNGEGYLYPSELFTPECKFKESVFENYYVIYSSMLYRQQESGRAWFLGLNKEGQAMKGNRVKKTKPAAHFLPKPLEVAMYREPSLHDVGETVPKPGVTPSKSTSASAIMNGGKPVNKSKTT
T1 sequence (Q9UQD0 1763-1976 limits assumed): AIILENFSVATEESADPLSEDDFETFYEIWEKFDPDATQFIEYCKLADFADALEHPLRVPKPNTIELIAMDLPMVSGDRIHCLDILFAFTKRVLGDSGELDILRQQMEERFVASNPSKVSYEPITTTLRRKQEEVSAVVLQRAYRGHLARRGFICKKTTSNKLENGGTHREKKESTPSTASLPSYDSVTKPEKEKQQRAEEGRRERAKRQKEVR
Chain of full-length P. pyralis luciferase (P08659 whole entry N50D/N119G/S548I/K549A/L550V, looked up): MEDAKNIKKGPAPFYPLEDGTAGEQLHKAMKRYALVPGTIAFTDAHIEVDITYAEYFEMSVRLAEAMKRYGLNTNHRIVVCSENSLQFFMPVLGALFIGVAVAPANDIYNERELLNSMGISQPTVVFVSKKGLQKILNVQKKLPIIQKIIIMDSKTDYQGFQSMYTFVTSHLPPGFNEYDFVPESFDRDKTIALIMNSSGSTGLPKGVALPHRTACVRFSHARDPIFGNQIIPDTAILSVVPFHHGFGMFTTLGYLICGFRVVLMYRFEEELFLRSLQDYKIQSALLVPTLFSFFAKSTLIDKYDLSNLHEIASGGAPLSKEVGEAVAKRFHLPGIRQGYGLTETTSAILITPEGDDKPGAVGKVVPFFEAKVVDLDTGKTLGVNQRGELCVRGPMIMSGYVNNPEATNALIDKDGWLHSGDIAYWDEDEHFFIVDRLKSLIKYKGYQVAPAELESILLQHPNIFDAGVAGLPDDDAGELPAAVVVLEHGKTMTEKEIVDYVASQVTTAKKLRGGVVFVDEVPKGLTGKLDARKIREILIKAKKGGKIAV

Structure (SMILES)	Luciferase Assay % Lum (full-length luciferase counter-screen) [1, 5] [%]	Luciferase Assay Z-score (full-length luciferase counter-screen) [1, 5]	Toxicity Assay Z-score (CTB cell viability) (Clone V cells [2])	Z-score (LCA primary screening) ([3]; 30 µM, 384-well, average of primary screening (n = 2), vs on-plate 0.3% DMSO)	dose-response behavior of repurchased compounds ([3]; 10-point dose response 0.25-50 µM, Clone V cells)	Split Luciferase Assay Z-score Set 1 [3]	Split Luciferase Assay % Lum Set 1 [3] [%]	Split Luciferase Assay Z-score Set 2 [3]	Split Luciferase Assay %Lum Set 2 [3] [%]	IMin (% Luminescence) ([3]; antagonists, Clone V cells, 384-well, normalized to DMSO)	Split Luciferase Assay %Lum Avg [3] [%]	action toward the FGF14:Nav1.6 C-tail interaction ([3]; dose-dependency validation using fresh compound samples)	IC50 ([3]; estimated, 8-point dose response 0.25-30 µM, n = 4 per concentration, library compounds, read-out: IC50) [µM]	IC50 ([3]; repurchased compounds, 10-point dose response 0.25-50 µM, n = 8 per concentration, Clone V cells, 384-well, read-out: in-cell IC50) [µM]	viability at 16 h, 30 µM (in vitro; Clone V cells) [%]	Toxicity Assay Z-score (CTB cell viability) (Clone V cells [4])	viability at 16 h, 30 µM (in vitro) [%]	Luciferase Assay % Lum (full-length luciferase counter-screen) [1] [%]	Luciferase Assay Z-score (full-length luciferase counter-screen) [1]
C[C@@H](Oc1cc(-c2cnn(C3CCNCC3)c2)cnc1N)c1c(Cl)ccc(F)c1Cl [Crizotinib, reference compound]	91.93	-1.03	0.27	−5.29	purely inhibitory effects	-5.24	35.11	-5.34	34.33	34.72	34.72	acted as antagonists	12.2	15.5	102				
CC(=O)O[C@@]12CO[C@@H]1C[C@H](O)[C@@]1(C)C(=O)[C@H](O)C3=C(C)[C@@H](OC(=O)[C@H](O)[C@@H](NC(=O)OC(C)(C)C)c4ccccc4)C[C@@](O)([C@@H](OC(=O)c4ccccc4)[C@H]21)C3(C)C [Docetaxel]	101.54	0.20	0.98			6.00	174.26	4.48	155.01		164.63				107				
CCCCCCCCc1ccc(CCC(N)(CO)CO)cc1 [Fingolimod]	94.97	-0.64	1.42			-0.06	99.25	0.58	107.15		103.20				110				
Nc1ccccc1NC(=O)c1ccc(CNc2nccc(-c3cccnc3)n2)cc1 [MGCD0103]	90.12	-1.27	0.52			-1.82	77.51	-1.96	75.94		76.73				104				
CS(=O)(=O)c1ccc(C2=C(c3ccccc3)C(=O)OC2)cc1 [ROFECOXIB]	102.66	0.34	1.28			1.78	122.08				87.57				109				
Oc1c2ccccc2c2c3c(cccc13)N=N2 [SP600125]	110.92	1.40	1.21			0.99	112.30	-1.20	85.31		98.80				109				
CO[C@H]1C[C@@H]2CC[C@@H](C)[C@@](O)(O2)C(=O)C(=O)N2CCCC[C@H]2C(=O)O[C@H]([C@H](C)C[C@@H]2CC[C@@H](O)[C@H](OC)C2)CC(=O)[C@H](C)/C=C(\C)[C@@H](O)[C@@H](OC)C(=O)[C@H](C)C[C@H](C)/C=C/C=C/C=C/1C [Sirolimus]	80.58	-2.49	0.38			1.26	115.56	0.41	105.07		110.32				103				
Cc1cc(Nc2cc(N3CCN(C)CC3)nc(Sc3ccc(NC(=O)C4CC4)cc3)n2)[nH]n1 [TOZASERTIB]	73.72	-3.37	0.86			-1.55	80.77	-6.02	26.01		53.39				106				
NC(=O)c1ccc(N(C(N)=O)c2c(F)cccc2F)nc1-c1ccc(F)cc1F [VX-702]	93.91	-0.78				1.35	116.65	-2.63	67.62		92.13					0.75	105		
CCCCC(=O)OCC(=O)[C@]1(O)Cc2c(O)c3c(c(O)c2[C@@H](O[C@H]2C[C@H](NC(=O)C(F)(F)F)[C@H](O)[C@H](C)O2)C1)C(=O)c1c(OC)cccc1C3=O [Valrubicin]						2.84	135.13	1.17	114.43		124.78					0.60	104	92.36	-0.98
CC[C@]1(O)C[C@@H]2CN(CCc3c([nH]c4ccccc34)[C@@](C(=O)OC)(c3cc4c(cc3OC)N(C)[C@H]3[C@@](O)(C(=O)OC)[C@H](OC(C)=O)[C@]5(CC)C=CCN6CC[C@]43[C@@H]65)C2)C1 [Vinblastine sulfate]	109.75	1.25				9.52	217.75	5.32	165.41		191.58					1.05	108		
